# System: T1, polyphenol oxidase (PPO), crude PPO extract of Hass avocado pulp
# T1 construct: isoenzyme not identified
# Test: absorbance at […] nm, Lineweaver-Burk
# Type: biochemical, Persea americana
# Details: phosphate buffer pH 7.0, catechol 2.7-44.5 mM, also printed as 0.1627 g/L, no inhibitor
compound,measurement,value
Oc1ccccc1O [catechol],Km,1480 µM
